Measured values reported in PubChem BioAssay (NCI).
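1) Cells in 96-well plates. 2) Compound, 48 h, 5 concentrations. 3) Linear interpolation between surrounding doses. 4) Unreached endpoint = highest concentration. TGI denotes the concentration required for complete inhibition of growth.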

system: MDA-MB-435; test: NCI tumour cell line growth inhibition, 48 h

Structure (SMILES)	TGI
CCSc1n/c(=C\c2ccco2)c2nnnn12	> 100 µM
CC(=O)OCc1cc(CCC(=O)NCCNc2c3ccccc3nc3ccccc23)cc(COC(C)=O)c1O[Si](C)(C)C(C)(C)C	8.06 µM
COc1cc(Nc2cnc3cc(F)c(F)cc3n2)cc(OC)c1OC	> 100 µM
Cc1nc2ccccc2c(=O)n1NC(=O)c1ccc(CS)cc1	31.3 µM
COc1ccc2nc3ccc(OC)cc3c(S(=O)CCCl)c2c1 (stereo unspecified)	17.1 µM
CNc1ccc(OC)cc1S(=O)(=O)c1ccccc1[N+](=O)[O-]	> 100 µM
CC1(CCCO)CCCCCC(C)(CCCO)C1=O (stereo unspecified)	> 100 µM

system: MOLT-4 leukemia; test: NCI tumour cell line growth inhibition, 48 h

Structure (SMILES)	TGI
O=Cc1ccc2c(c1)CC1(C2)Cc2ccc3c(c2C1)CCC3 (stereo unspecified)	31.9 µM
CC(=O)Nc1cc(C(=O)Nc2cc(C(=O)N3CC(CCl)c4c3cc(N)c3ccccc43)nn2C)nn1C (stereo unspecified)	0.0687 µM
C=C(C)C(CC=C(C)C)CC12CC(CC=C(C)C)C(C)(C)C(CC=C(C)C)(C(=O)C(Cc3ccc(O)c(O)c3)=C1O)C2=O (stereo unspecified)	> 100 µM
NC(Cc1cccc([N+](=O)[O-])c1)C(=O)O (stereo unspecified)	> 100 µM
CCC(=O)NC(Nc1cccc(F)c1C)(C(F)(F)F)C(F)(F)F	> 100 µM
Clc1c(Cl)c(Cl)c2nn(C3CCCO3)nc2c1Cl (stereo unspecified)	> 100 µM
N#C/C(C(=O)Nc1ccccc1)=C(/N)N1CCOCC1	> 100 µM
O/N=C1/COC(C(F)(F)F)(C(F)(F)F)C1	> 100 µM
O=c1[nH]c(-c2ccc3ccccc3c2)nc2ccccc12	> 100 µM
CS(=O)(=O)Nc1ccc(N2Cc3cnc4ccc5[nH]ccc2c5c34)cc1	8.94 µM
COc1ccc(C(=O)Sc2c(-c3ccccc3)c(=O)n(-c3ccccc3)c(=S)n2-c2ccccc2)cc1	56.1 µM
COCCOCc1nc(C#N)c(N)o1	> 100 µM
CC1=C(C#N)C(C#N)(C#N)C(NN(C)C)C1 (stereo unspecified)	79.5 µM
CN1C(=O)N/C(=C\c2ccc(S(=O)(=O)NN)cc2)C1=O	> 100 µM
COc1nc(C(=O)NNC(=O)c2nc(OC)c3ccccc3c2-c2ccccc2)c(-c2ccccc2)c2ccccc12	> 100 µM
CCSc1n/c(=C\c2ccco2)c2nnnn12	> 100 µM
CC(=O)OCc1cc(CCC(=O)NCCNc2c3ccccc3nc3ccccc23)cc(COC(C)=O)c1O[Si](C)(C)C(C)(C)C	5.25 µM
COc1cc(Nc2cnc3cc(F)c(F)cc3n2)cc(OC)c1OC	> 100 µM
Cc1nc2ccccc2c(=O)n1NC(=O)c1ccc(CS)cc1	12.3 µM
COc1ccc2nc3ccc(OC)cc3c(S(=O)CCCl)c2c1 (stereo unspecified)	> 20.7 µM
CNc1ccc(OC)cc1S(=O)(=O)c1ccccc1[N+](=O)[O-]	> 100 µM
CC1(CCCO)CCCCCC(C)(CCCO)C1=O (stereo unspecified)	> 100 µM

system: NCI-H460 lung; test: NCI tumour cell line growth inhibition, 48 h

Structure (SMILES)	TGI
O=Cc1ccc2c(c1)CC1(C2)Cc2ccc3c(c2C1)CCC3 (stereo unspecified)	38.7 µM
CC(=O)Nc1cc(C(=O)Nc2cc(C(=O)N3CC(CCl)c4c3cc(N)c3ccccc43)nn2C)nn1C (stereo unspecified)	0.13 µM
O=C(O)c1n[nH]nc1Cl	> 100 µM
C=C(C)C(CC=C(C)C)CC12CC(CC=C(C)C)C(C)(C)C(CC=C(C)C)(C(=O)C(Cc3ccc(O)c(O)c3)=C1O)C2=O (stereo unspecified)	> 100 µM
NC(Cc1cccc([N+](=O)[O-])c1)C(=O)O (stereo unspecified)	> 100 µM
CCC(=O)NC(Nc1cccc(F)c1C)(C(F)(F)F)C(F)(F)F	> 100 µM
CCCCCN=Cc1c(O)c(O)c(C(C)C)c2cc(C)c(-c3c(C)cc4c(C(C)C)c(O)c(O)c(C=NCCCCC)c4c3O)c(O)c12	> 100 µM
N#C/C(C(=O)Nc1ccccc1)=C(/N)N1CCOCC1	> 100 µM
O/N=C1/COC(C(F)(F)F)(C(F)(F)F)C1	> 100 µM
O=c1[nH]c(-c2ccc3ccccc3c2)nc2ccccc12	> 100 µM
CS(=O)(=O)Nc1ccc(N2Cc3cnc4ccc5[nH]ccc2c5c34)cc1	46.2 µM
COc1ccc(C(=O)Sc2c(-c3ccccc3)c(=O)n(-c3ccccc3)c(=S)n2-c2ccccc2)cc1	> 100 µM
CCc1nc(N)nc(N)c1-c1ccc(Cl)c(Cl)c1	> 100 µM
COCCOCc1nc(C#N)c(N)o1	> 100 µM
CC(=O)OCc1cc(CCC(=O)NCCNc2c3ccccc3nc3ccccc23)cc(COC(C)=O)c1O[Si](C)(C)C(C)(C)C	21.6 µM
COc1cc(Nc2cnc3cc(F)c(F)cc3n2)cc(OC)c1OC	> 100 µM
Cc1nc2ccccc2c(=O)n1NC(=O)c1ccc(CS)cc1	60.4 µM
COc1ccc2nc3ccc(OC)cc3c(S(=O)CCCl)c2c1 (stereo unspecified)	> 63.7 µM
CNc1ccc(OC)cc1S(=O)(=O)c1ccccc1[N+](=O)[O-]	> 100 µM
CC1(CCCO)CCCCCC(C)(CCCO)C1=O (stereo unspecified)	> 100 µM

system: NCI/ADR-RES ovarian; test: NCI tumour cell line growth inhibition, 48 h

Structure (SMILES)	TGI
O=Cc1ccc2c(c1)CC1(C2)Cc2ccc3c(c2C1)CCC3 (stereo unspecified)	27.8 µM
CC(=O)Nc1cc(C(=O)Nc2cc(C(=O)N3CC(CCl)c4c3cc(N)c3ccccc43)nn2C)nn1C (stereo unspecified)	7.49 µM
O=C(O)c1n[nH]nc1Cl	> 100 µM
C=C(C)C(CC=C(C)C)CC12CC(CC=C(C)C)C(C)(C)C(CC=C(C)C)(C(=O)C(Cc3ccc(O)c(O)c3)=C1O)C2=O (stereo unspecified)	> 100 µM
NC(Cc1cccc([N+](=O)[O-])c1)C(=O)O (stereo unspecified)	> 100 µM
CCC(=O)NC(Nc1cccc(F)c1C)(C(F)(F)F)C(F)(F)F	> 100 µM
CCCCCN=Cc1c(O)c(O)c(C(C)C)c2cc(C)c(-c3c(C)cc4c(C(C)C)c(O)c(O)c(C=NCCCCC)c4c3O)c(O)c12	> 100 µM
Clc1c(Cl)c(Cl)c2nn(C3CCCO3)nc2c1Cl (stereo unspecified)	> 100 µM
N#C/C(C(=O)Nc1ccccc1)=C(/N)N1CCOCC1	> 100 µM
O/N=C1/COC(C(F)(F)F)(C(F)(F)F)C1	> 100 µM
O=c1[nH]c(-c2ccc3ccccc3c2)nc2ccccc12	> 100 µM
CS(=O)(=O)Nc1ccc(N2Cc3cnc4ccc5[nH]ccc2c5c34)cc1	> 100 µM
COc1ccc(C(=O)Sc2c(-c3ccccc3)c(=O)n(-c3ccccc3)c(=S)n2-c2ccccc2)cc1	> 100 µM
CCc1nc(N)nc(N)c1-c1ccc(Cl)c(Cl)c1	> 100 µM
COCCOCc1nc(C#N)c(N)o1	> 100 µM
CC1=C(C#N)C(C#N)(C#N)C(NN(C)C)C1 (stereo unspecified)	> 100 µM
CN1C(=O)N/C(=C\c2ccc(S(=O)(=O)NN)cc2)C1=O	> 100 µM
COc1nc(C(=O)NNC(=O)c2nc(OC)c3ccccc3c2-c2ccccc2)c(-c2ccccc2)c2ccccc12	> 100 µM
CCSc1n/c(=C\c2ccco2)c2nnnn12	> 100 µM
CC(=O)OCc1cc(CCC(=O)NCCNc2c3ccccc3nc3ccccc23)cc(COC(C)=O)c1O[Si](C)(C)C(C)(C)C	45.9 µM
COc1cc(Nc2cnc3cc(F)c(F)cc3n2)cc(OC)c1OC	> 100 µM
Cc1nc2ccccc2c(=O)n1NC(=O)c1ccc(CS)cc1	> 100 µM
COc1ccc2nc3ccc(OC)cc3c(S(=O)CCCl)c2c1 (stereo unspecified)	36.8 µM
CNc1ccc(OC)cc1S(=O)(=O)c1ccccc1[N+](=O)[O-]	> 100 µM
CC1(CCCO)CCCCCC(C)(CCCO)C1=O (stereo unspecified)	> 100 µM

system: OVCAR-8 ovarian; test: NCI tumour cell line growth inhibition, 48 h

Structure (SMILES)	TGI
O=Cc1ccc2c(c1)CC1(C2)Cc2ccc3c(c2C1)CCC3 (stereo unspecified)	29.8 µM
CC(=O)Nc1cc(C(=O)Nc2cc(C(=O)N3CC(CCl)c4c3cc(N)c3ccccc43)nn2C)nn1C (stereo unspecified)	0.308 µM
O=C(O)c1n[nH]nc1Cl	> 100 µM
C=C(C)C(CC=C(C)C)CC12CC(CC=C(C)C)C(C)(C)C(CC=C(C)C)(C(=O)C(Cc3ccc(O)c(O)c3)=C1O)C2=O (stereo unspecified)	> 100 µM
NC(Cc1cccc([N+](=O)[O-])c1)C(=O)O (stereo unspecified)	> 100 µM
CCC(=O)NC(Nc1cccc(F)c1C)(C(F)(F)F)C(F)(F)F	> 100 µM
CCCCCN=Cc1c(O)c(O)c(C(C)C)c2cc(C)c(-c3c(C)cc4c(C(C)C)c(O)c(O)c(C=NCCCCC)c4c3O)c(O)c12	> 100 µM
Clc1c(Cl)c(Cl)c2nn(C3CCCO3)nc2c1Cl (stereo unspecified)	> 100 µM
N#C/C(C(=O)Nc1ccccc1)=C(/N)N1CCOCC1	> 100 µM
O/N=C1/COC(C(F)(F)F)(C(F)(F)F)C1	> 100 µM
O=c1[nH]c(-c2ccc3ccccc3c2)nc2ccccc12	54.4 µM
CS(=O)(=O)Nc1ccc(N2Cc3cnc4ccc5[nH]ccc2c5c34)cc1	62.5 µM
COc1ccc(C(=O)Sc2c(-c3ccccc3)c(=O)n(-c3ccccc3)c(=S)n2-c2ccccc2)cc1	> 100 µM
CC1=C(C#N)C(C#N)(C#N)C(NN(C)C)C1 (stereo unspecified)	> 100 µM
CN1C(=O)N/C(=C\c2ccc(S(=O)(=O)NN)cc2)C1=O	> 100 µM
COc1nc(C(=O)NNC(=O)c2nc(OC)c3ccccc3c2-c2ccccc2)c(-c2ccccc2)c2ccccc12	> 100 µM
CCSc1n/c(=C\c2ccco2)c2nnnn12	> 100 µM
CC(=O)OCc1cc(CCC(=O)NCCNc2c3ccccc3nc3ccccc23)cc(COC(C)=O)c1O[Si](C)(C)C(C)(C)C	39.9 µM
COc1cc(Nc2cnc3cc(F)c(F)cc3n2)cc(OC)c1OC	> 100 µM
Cc1nc2ccccc2c(=O)n1NC(=O)c1ccc(CS)cc1	> 100 µM
COc1ccc2nc3ccc(OC)cc3c(S(=O)CCCl)c2c1 (stereo unspecified)	9.2 µM
CNc1ccc(OC)cc1S(=O)(=O)c1ccccc1[N+](=O)[O-]	> 100 µM
CC1(CCCO)CCCCCC(C)(CCCO)C1=O (stereo unspecified)	> 100 µM

system: RPMI-8226 leukemia; test: NCI tumour cell line growth inhibition, 48 h

Structure (SMILES)	TGI
O=Cc1ccc2c(c1)CC1(C2)Cc2ccc3c(c2C1)CCC3 (stereo unspecified)	27.9 µM
CC(=O)Nc1cc(C(=O)Nc2cc(C(=O)N3CC(CCl)c4c3cc(N)c3ccccc43)nn2C)nn1C (stereo unspecified)	1.41 µM
O=C(O)c1n[nH]nc1Cl	> 100 µM
C=C(C)C(CC=C(C)C)CC12CC(CC=C(C)C)C(C)(C)C(CC=C(C)C)(C(=O)C(Cc3ccc(O)c(O)c3)=C1O)C2=O (stereo unspecified)	> 100 µM
NC(Cc1cccc([N+](=O)[O-])c1)C(=O)O (stereo unspecified)	> 100 µM
CCC(=O)NC(Nc1cccc(F)c1C)(C(F)(F)F)C(F)(F)F	> 100 µM
CCCCCN=Cc1c(O)c(O)c(C(C)C)c2cc(C)c(-c3c(C)cc4c(C(C)C)c(O)c(O)c(C=NCCCCC)c4c3O)c(O)c12	> 100 µM
N#C/C(C(=O)Nc1ccccc1)=C(/N)N1CCOCC1	> 100 µM
O/N=C1/COC(C(F)(F)F)(C(F)(F)F)C1	> 100 µM
O=c1[nH]c(-c2ccc3ccccc3c2)nc2ccccc12	> 100 µM
CS(=O)(=O)Nc1ccc(N2Cc3cnc4ccc5[nH]ccc2c5c34)cc1	48.1 µM
CCc1nc(N)nc(N)c1-c1ccc(Cl)c(Cl)c1	> 100 µM
COCCOCc1nc(C#N)c(N)o1	> 100 µM
CC1=C(C#N)C(C#N)(C#N)C(NN(C)C)C1 (stereo unspecified)	35.9 µM
CN1C(=O)N/C(=C\c2ccc(S(=O)(=O)NN)cc2)C1=O	> 100 µM
COc1nc(C(=O)NNC(=O)c2nc(OC)c3ccccc3c2-c2ccccc2)c(-c2ccccc2)c2ccccc12	> 100 µM
CCSc1n/c(=C\c2ccco2)c2nnnn12	> 100 µM
CC(=O)OCc1cc(CCC(=O)NCCNc2c3ccccc3nc3ccccc23)cc(COC(C)=O)c1O[Si](C)(C)C(C)(C)C	5.77 µM
Cc1nc2ccccc2c(=O)n1NC(=O)c1ccc(CS)cc1	> 100 µM
